# Measurements reported in US11926634B2, “Processes for the preparation of selective estrogen receptor degraders” (Eli Lilly and Company, priority 2022, dated 2024).
# Molecular target: T1, hERα (Homo sapiens, UniProt P03372)
# T1 construct: ERα degradation High Content Imaging assays in MCF7 ESR1 Wild Type cells; endogenous in cells; host or cells: MCF7 (ESR1 wild type)
# T1 sequence (P03372 1-595): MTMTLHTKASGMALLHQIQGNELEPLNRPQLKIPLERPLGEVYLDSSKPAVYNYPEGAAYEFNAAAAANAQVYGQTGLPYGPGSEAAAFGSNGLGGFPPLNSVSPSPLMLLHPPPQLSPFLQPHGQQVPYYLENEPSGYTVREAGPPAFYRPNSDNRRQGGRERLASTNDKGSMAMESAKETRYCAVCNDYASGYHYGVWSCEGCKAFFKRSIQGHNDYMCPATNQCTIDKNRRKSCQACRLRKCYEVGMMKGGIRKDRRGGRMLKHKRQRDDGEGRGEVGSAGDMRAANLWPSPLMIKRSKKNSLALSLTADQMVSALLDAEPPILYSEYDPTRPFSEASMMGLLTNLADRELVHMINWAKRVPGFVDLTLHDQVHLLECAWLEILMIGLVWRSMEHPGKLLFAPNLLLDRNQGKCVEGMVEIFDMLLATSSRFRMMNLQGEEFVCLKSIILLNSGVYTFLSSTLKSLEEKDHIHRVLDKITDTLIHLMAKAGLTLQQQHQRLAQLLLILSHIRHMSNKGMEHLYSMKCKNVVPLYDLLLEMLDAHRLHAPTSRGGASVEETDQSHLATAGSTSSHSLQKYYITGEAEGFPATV
# Assay: ERα degradation high content imaging assay in MCF7 cells
# Format: cell-based
# Settings: MCF7 ESR1 Wild Type cells; output % estrogen receptor positive cells; read-out: Relative IC50 (μM), hERα Degradation Cell Assay in MCF7 Cells
# Protocol: Cells were fixed by adding 14% paraformaldehyde (10 μL) for 30 min at RT. The cells were washed once with PBS (20 μL) and incubated with PBS (20 μL per well) containing 0.5% (v/v) TWEEN® 20 for 1 h. Cells were washed with PBS containing 0.05% TWEEN® 20 (2×) and blocked with 3% BSA in PBS containing 0.05% TWEEN® and 0.1% TRITON™ X-100 (20 μL/well) for 1 h at RT. A 1:500 dilution of Primary antibody (20 μL) (ERα (Clone SP1) monoclonal rabbit antibody #RM-9101-S, Thermo Scientific) in 1% BSA in PBS containing 0.05% TWEEN® 20 was added, the plates were sealed and incubated overnight at 4° C. The following day the cells were washed with PBS containing 0.05% TWEEN® 20 (2×) and incubated with secondary antibody ([…]) (1:1000 dilution, Goat anti-rabbit IgM ALEXA FLUOR™ 488) in PBS 1% BSA for 105 min at RT. After incubation plates were washed with PBS (2×20 μL), and PBS (20 μL) containing RNase (Sigma) (50 μg/mL) and 1:1000 propidium iodide dilution was added per well. Plates were sealed and incubated 1 h at RT (preserved from light). The plates were scanned with ACUMEN EXPLORER™ [Laser-scanning fluorescence microplate cytometer manufactured by TTP LABTECH LTD] to measure ERa. Image analysis was based on cellular fluorescent signals for identifying positive cells. Estrogen receptor positive cells were identified by mean intensity. Total intensity at 575-640 nm from propidium iodide/DNA was used to identify individual cells. Assay output was % estrogen receptor positive cells. The IC50 was determine by curve fitting to a four-parameter logistic for each output using GENE DATA™. Raw data (FLU) were plotted as nonlinear regression through […]© tool. Data was analyzed using a 4-parameter nonlinear logistic equation (four-parameter logistic concentration-response curve): Y=bot+[(top-bot)/1+(x/IC50) slope] where Y=% inhibition, x=concentration yielding y % inhibition, Bottom=minimum value of y attained by curve, Top=maximum value of y attained by curve and Slope=steepness of curve at IC50. % Inh=[(median Max−x/median Max−median Min)]×100.
DC50 [µM],IC50 [µM],Compound
> 2,–,CCOC(COc1ccc(C(=O)c2c(-c3ccc(C(F)(F)F)cc3F)cnc3cc(O)ccc23)cc1)OCC
0.126 ± 0.0442,–,O=C(c1ccc(OCCN2CC(CF)C2)cc1)c1c(Cl)cnc2cc(O)ccc12
–,0.00216,O=C(c1ccc(OCCN2CC(CF)C2)cc1)c1c(-c2ccc(C(F)(F)F)cc2F)cnc2cc(O)ccc12
> 2,–,CCOC(COc1ccc(C(O)c2c(-c3ccc(C(F)(F)F)cc3F)cnc3cc(O)ccc23)cc1)OCC (stereo not shown)
0.278 ± 0.126,–,Oc1ccc2c(C(O)c3ccc(OCCN4CC(CF)C4)cc3)c(-c3ccc(C(F)(F)F)cc3F)cnc2c1 (stereo not shown)
> 2,–,CCOC(COc1ccc(C2Oc3cc(C(F)(F)F)ccc3-c3cnc4cc(O)ccc4c32)cc1)OCC (stereo not shown)
> 2,–,O=CCOc1ccc(C2Oc3cc(C(F)(F)F)ccc3-c3cnc4cc(O)ccc4c32)cc1 (stereo not shown)
